“Also recorded” adds a separate entry of the source. Like-named read-outs stand apart in the source and are kept apart here.
Tests used:
[1] = tested on: LPS mediated TNFα stimulation of rat macrophages / spleen cells; experiment: Rat in vitro LPS model; format: cell-based; settings: 1 μg/ml, LPS 20 hours, FIG. 37
Protocol: Rat or mouse peritoneal or spleen cell suspensions were prepared from female Lewis rats (Harlan) or BalB/cA mice (Taconic). Human mononuclear cells were isolated from buffycoats (Skejby University Hospital) as described above. The purified cells were suspended in RPMI medium supplemented with 10% FCS and 2 mM L-glutamine and cultured (2×10^5 per well) overnight in 96-well flat bottomed plates (125 μl per well) at 37° C. and 5% CO2. Glucocorticoid conjugates (Example 8), free glucocorticoids or PBS were serial diluted in supplemented RPMI medium and added (100 μl) to the overnight cell cultures at final concentrations ranging from 1-10^−7 μg glucocorticoid/ml. After incubation for a specific time ranging from 30 min-24 hours, 150 μl supernatant was carefully aspirated and 150 μl supplemented RPMI medium added to the wells before further incubation overnight. Each incubation condition was tested in duplicates or triplicates. After 16-20 hours, the cells were challenged with lipopolysaccharide (LPS) (250 ng/ml) for 4 hours before supernatant was aspirated from each well and frozen at -20° C.

[2] = tested on: LPS mediated TNFα stimulation; experiment: Rat in vivo LPS model; set-up: species or system Lewis rats
[3] = tested on: LPS mediated TNFα stimulation; settings: serum 2 hours post LPS challenge, FIG. 42
[4] = tested on: collagen-induced arthritis; settings: for body weight after initiation of treatment: FIG. 47; for day of disease onset: mean±SD; for thymus weight compared to vehicle: at sacrifice
Protocol: The effect of dexamethasone on arthritis development in the rat CIA model was tested at three dosages (0.01, 0.1 and 1 mg/kg). Dexamethasone was administered intravenously on day 10 (day of disease onset), 13, 16 and 19. […] Treatment with vehicle (PBS/2.5% EtOH) served as negative control. Rats were sacrificed 21 days after immunization.
Collagen arthritis was induced in 9 weeks old female Lewis rats using a two-step immunization protocol. On day 0, all mice were immunized by intradermal injection of 1 mg/ml bovine type II collagen emulsified in Incomplete Freund's adjuvant at several sites at the back. Arthritis development was accelerated by an intradermal boost in the back and tail-base with 100 Sg bovine type II collagen in IFA on day 7. In order to perform immunization and intradermal boost, rats were anesthetized by inhalation of 3-4% isoflurane in a mixture of oxygen and N2O.
Rats were evaluated 6 times per week (once during weekends) for arthritis severity using a macroscopic scoring system of 0-4 for each paw as detailed below: • 0=no signs of arthritis • 0.5=unloading of the paw and/or light redness of ankle joint • 1=redness and mild swelling of the ankle joint • 2=redness and swelling of paw • 3=severe redness and swelling of entire paw including digits • 4=maximally swollen paw, often involvement of multiple joints and extending towards knee joint.
The total clinical score of an individual rat is defined as the sum of the clinical scores of all four paws for each day. At the end of the study, the cumulative arthritis score was calculated for each rat. This cumulative arthritis score is defined as the sum of the total clinical scores obtained from day 0 till day 21.
The day of disease is defined as the first day of three consecutive days on which a total arthritis score of more than 0 was observed.
The swelling of the hind paws was measured during weekdays with a laser scan micrometer (Mitutoyo, LSM-503S/6200). At the end of the study, the cumulative paw swelling was calculated for each rat as follows: a baseline value was determined by averaging the paw thickness values of day 0-9 when no signs of arthritis were visible. Next, increase in paw thickness was calculated by subtracting the baseline value from the paw thickness values obtained on day 10-21 (delta value). Cumulative paw swelling is defined as the sum of the delta paw thickness values from day 10 till 21.
Spleen, thymus and liver were isolated and weighed at sacrifice. Weights were normalized for body weight.
Collagen-induced arthritis (CIA) was induced in female Lewis rats (9 weeks of age) by intradermal injection of approximately 1 mg bovine type II collagen (Chondrex) emulsified in Incomplete Freund's adjuvant (IFA). The rats were immunized at several sites at the back under isoflurane anaesthesia (day 0) and boosted intradermal at the back and tail-base with 100 μg bovine type II collagen in IFA at day 7. The rats were scored 6 times per weeks for clinical signs of arthritis. Clinical severity of CIA was determined by swelling of individual joints and the number of affected joints in the front and rear paws. Each paw was scored from 1 to 4, so the maximum clinical score, including all four paws was 16.
A total of 20 rats were divided into five treatment groups (4 rats each). […] Changes in ankle size and body weight were monitored during the treatment process. On day 21, all animals were sacrificed and joint tissue, spleen, liver and thymus were dissected.

In the case of `C[C@@H]1C[C@H]2[C@@H]3CCC4=CC(=O)C=C[C@]4(C)[C@@]3(F)[C@@H](O)C[C@]2(C)[C@@]1(O)C(=O)CO` [dexamethasone], the “TNFα concentration higher in supernatants of macrophages stimulated without the agent (ED2 or PBS)” value [1] is reported as “approximately 10 fold”, the “spleen and thymus weight compared with rats injected with ED2-dexamethasone” value ([2]; 2 days post LPS injection, FIG. 39B and C) is reported as “significantly lower” and the “level of TNFα lower compared to vehicle” value ([2]; i.v. 20 hours before LPS, serum 2 hours after LPS, FIG. 39A) is reported as 2 fold. For the same molecule, the “TNFα level lower compared to vehicle” value [3] was 2 fold, the “cumulative arthritis score reduced with respect to the vehicle group” value (“cumulative arthritis score reduced” below) ([4]; 0.01 mg/kg) was 39% and the “day on which disease incidence of 100% was reached” value ([4]; 0.01 mg/kg) was 14 days. For the same molecule, the “body weight after initiation of treatment” value ([4]; 0.01 mg/kg) was “a certain degree of body weight loss”, the “cumulative arthritis score reduced” value ([4]; 0.1 mg/kg) was 69% and the “day of disease onset” value ([4]; 0.1 mg/kg i.v. day 10, 13, 16, 19) was 13.8 ± 1.0 days. For the same molecule, the “thymus weight compared to vehicle” value ([4]; 0.1 mg/kg) was “significantly decreased; also recorded: significantly lower”, the “cumulative arthritis score reduced” value ([4]; 1 mg/kg) was 91% and the “day of disease onset” value ([4]; 1 mg/kg i.v. day 10, 13, 16, 19) was 18.3 ± 2.1 days. For the same molecule, the “thymus weight compared to vehicle” value ([4]; 1 mg/kg) was “significantly decreased”, the “spleen and liver weights compared to vehicle” value ([4]; 0.01, 0.1 and 1 mg/kg groups) was “No significant differences” and the “body weight after initiation of treatment” value ([4]; 0.01, 0.1 and 1 mg/kg groups) was “decreased gradually”.

Reference: patent publication US20170119790A1, “Agents, Uses and Methods” (CYTOGUIDE A/S, priority 2009, published 2017)
